Here are results for five compounds from paper PMC9032516, “Targeting Zika Virus with New Brain- and Placenta-Crossing Peptide–Porphyrin Conjugates” (Pharmaceutics, 2022).

Broadly, the IC50 is the concentration that inhibits the measured activity by half.

Series [1] concerns ZIKV^BR. As to the kind of experiment: ZIKV inactivation assay (plaque assay on Vero cells). The class given is cell-based, Zika virus. The settings on record: 10^5 PFU ZIKV^BR pre-treated 1 h at 37 °C in the dark with 0.01–50 µM, titrated by plaque assay on Vero cells, three independent replicates. The method, then: After infection, cells were cultured for 7 days.
Three independent replicates were performed.

In series [2] the test system is HIV. On the set-up: method as in 2 sources, one per row (each row's own in cited_ref): ref [24] as printed in Table 2, ref [2] in supplement ||| ref 23 = [23]; PMID 34033716; doi:10.1021/acs.bioconjchem.1c00123; 23. Mendonça D.A. Bakker M. Cruz-Oliveira C. Neves V. Jiménez M.A. Defaus S. Cavaco M. Veiga A.S. Cadima-Couto I. Castanho M.A.R.B. Penetrating the Blood-Brain Barrier with New Peptide–Porphyrin Conju. The settings on record: in vitro; values marked a; ref [24] as printed in Table 2, ref [2] in supplement; cited from earlier work.

A short description of series [3]: Serum stability. The settings on record: human serum diluted 1:1 (v/v) with HEPES buffer, 0.05 mM in 1:1 human serum / HEPES buffer (10 mM, NaCl 150 mM, pH 7.8), 37 °C, methanol precipitation, three independent replicates, read-out: t1/2 in human serum (converted). The class given is in vitro ADME.
Method: Next, 600 µL of conjugate/peptide solution were mixed (1:1 v/v) with 600 µL of human serum, to a 0.05 mM final concentration. The mixture was incubated at 37 °C and, at various time points, 50 µL (in triplicate) were taken and precipitated with 200 µL cold methanol. The samples were centrifuged at 13,000 rpm, 10 min, +4 °C. Afterwards, 50 µL of each supernatant were injected on an LC-20AD instrument (Shimadzu) equipped with a Luna C18 column (4.6 mm × 50 mm, 3 µm, Phenomenex, Torrance, CA, USA) and analysed using a 0–95% linear gradient of MeCN into 0.1% TFA in H2O over 15 min with 1 mL/min flow rate. PDA detection at 220 nm and 401 nm was used and the half-life times were calculated by peak area integration at 401 nm, the λmax of MP and PP. Controls included blank serum (25 µL each of 1:1 v/v serum + HEPES buffer, then precipitation with 200 µL cold methanol), untreated conjugate/peptide (25 µL of 0.1 mM stock in HEPES buffer + 25 µL HEPES buffer, then precipitation with 200 µL cold methanol), and a zero-time sample (200 µL cold methanol + 25 µL serum + 25 µL 0.1 mM conjugate/peptide stock); the conjugate/peptide was added last to avoid any contact with protease. Controls were analysed by LC and LC-MS as above. Three independent replicates were performed.
Series [4] concerns HBEC-5i human brain endothelia monolayer (in vitro BBB model). As to the kind of experiment: In vitro BBB integrity assay (FD4 permeability after incubation). Format: cell-based. The protocol: After 24 h incubation with PPCs, cells were washed with PBS and DMEM:F12 medium without phenol red. […] Three independent replicates were performed.

Where a name gives a salt, the structure may show the parent alone. Read-outs that look alike come from different tables or passages of the source. No end group written: not given here.

Turning to `CCC1=C(C)c2cc3[nH]c(cc4[nH]c(cc5nc(cc1n2)C(C)=C5CC)c(C)c4CCC(=O)O)c(CCC(=O)O)c3C` [MP, Mesoporphyrin IX dihydrochloride], the IC50 in series [1] and in series [2] was more than 50 µM in each case.

Take VQQLTKRFSL-NH2 [P1]: the half-life at 0.05 mM in series [3] (HPLC) was 0.733 h.

SGTQEEY-NH2 [P5, SGTQEEY-amide]: the half-life at 0.05 mM in series [3] (over 24 h, HPLC peak area (401 nm for porphyrins)) was 2.2 h.

Regarding `O=C(O)CN(CCOCCOCCN(CC(=O)O)CC(=O)O)CC(=O)O` [EGTA], the “FD4 permeability post-translocation (Basolateral Content), BBB” value in series [4] is 29.6%.

Regarding `C=CC1=C(C)c2cc3[nH]c(cc4nc(cc5[nH]c(cc1n2)c(C)c5CCC(=O)O)C(CCC(=O)O)=C4C)c(C)c3C=C` [PP, protoporphyrin IX], the IC50 in series [2] was more than 50 µM. In series [4] (HBEC-5i monolayer after 24 h incubation with 10 µM compound, 4 kDa FITC-dextran apical, 2 h, fluorescence, three independent replicates, black bars Figure 1B, control (cells only) 10.3%), the “FD4 permeability post-translocation (Basolateral Content), BBB” value turned out to be 24.7%. In addition, the “increase in FD4 permeability over control values, BBB” value in series [4] (HBEC-5i monolayer, 24.7% versus control 10.3%) is 2.5 fold.
